Assay results taken from US10239882B2, “Substituted 5-methyl-[1,2,4]triazolo[1,5-a]pyrimidin-2-amine compounds as PDE2 inhibitors” (DART NEUROSCIENCE (CAYMAN) LTD., priority 2014, dated 2019).

biological target: FLAG-tagged PDE2A1 (amino acids 2-941) (Homo sapiens (Human), UniProt O00408); experiment: IMAP TR-FRET PDE2A enzymatic assay; assay type: biochemical; conditions: 200 nM FAM-cAMP substrate, 11-point half-log dose-response
Text: An IMAP TR-FRET-based phosphodiesterase assay was developed using the PDE2A isoform. IMAP technology is based on high-affinity binding of phosphate by immobilized metal (MIII) coordination complexes on nanoparticles. The IMAP “binding reagent” recognizes phosphate groups on AMP or GMP generated from cAMP or cGMP in a PDE reaction. Cyclic nucleotides that carry a phosphodiester bond and not a free phosphate are not recognized by the binding reagent. The time resolved fluorescence resonance energy transfer (TR-FRET) is afforded by a Terbium (Tb)-Donor pre-bound to the nanoparticles. FRET occurs when the fluorescent-labeled AMP or GMP product of a PDE reaction binds and comes into close proximity to the Tb-Donor complex. Due to the long lifetime of Tb fluorescence, detection can be run in time-resolved mode to reduce or eliminate interference from auto-fluorescent compounds.
The IMAP TR-FRET PDE2A assay was performed in 1536-well white plates. A total of 250 pg per well of FLAG-tagged PDE2A1 (amino acids 2-941) was dispensed in 2.5 μL IMAP assay buffer consisting of 10 mM Tris pH 7.2, 10 mM MgCl2, 1 mM DTT, and 0.1% fatty acid free BSA. 30 nL of compound was then added from 1 mM stocks in DMSO using a Kalypsys Pintool. Plates were incubated for 5 min at room temperature before dispensing 1.5 μL of 533 nM FAM-cAMP substrate for a final concentration of 200 nM. Following a brief centrifugation, plates were incubated for 30 min at room temperature. The assay was terminated by adding 5 μL IMAP binding reagent Tb complex to each well which was prepared according to manufacturer's recommendations (Molecular Devices). Plates were incubated an additional 90 minutes at room temperature and read on a Viewlux plate reader. All compounds were solvated at a concentration of 10 mM in DMSO and tested in 11-point half-log dose-response. Curve fitting and IC50 values were determined using a standard four parameter fit.

FLAG-tagged PDE2A1 (amino acids 2-941), sequence (O00408 2-941): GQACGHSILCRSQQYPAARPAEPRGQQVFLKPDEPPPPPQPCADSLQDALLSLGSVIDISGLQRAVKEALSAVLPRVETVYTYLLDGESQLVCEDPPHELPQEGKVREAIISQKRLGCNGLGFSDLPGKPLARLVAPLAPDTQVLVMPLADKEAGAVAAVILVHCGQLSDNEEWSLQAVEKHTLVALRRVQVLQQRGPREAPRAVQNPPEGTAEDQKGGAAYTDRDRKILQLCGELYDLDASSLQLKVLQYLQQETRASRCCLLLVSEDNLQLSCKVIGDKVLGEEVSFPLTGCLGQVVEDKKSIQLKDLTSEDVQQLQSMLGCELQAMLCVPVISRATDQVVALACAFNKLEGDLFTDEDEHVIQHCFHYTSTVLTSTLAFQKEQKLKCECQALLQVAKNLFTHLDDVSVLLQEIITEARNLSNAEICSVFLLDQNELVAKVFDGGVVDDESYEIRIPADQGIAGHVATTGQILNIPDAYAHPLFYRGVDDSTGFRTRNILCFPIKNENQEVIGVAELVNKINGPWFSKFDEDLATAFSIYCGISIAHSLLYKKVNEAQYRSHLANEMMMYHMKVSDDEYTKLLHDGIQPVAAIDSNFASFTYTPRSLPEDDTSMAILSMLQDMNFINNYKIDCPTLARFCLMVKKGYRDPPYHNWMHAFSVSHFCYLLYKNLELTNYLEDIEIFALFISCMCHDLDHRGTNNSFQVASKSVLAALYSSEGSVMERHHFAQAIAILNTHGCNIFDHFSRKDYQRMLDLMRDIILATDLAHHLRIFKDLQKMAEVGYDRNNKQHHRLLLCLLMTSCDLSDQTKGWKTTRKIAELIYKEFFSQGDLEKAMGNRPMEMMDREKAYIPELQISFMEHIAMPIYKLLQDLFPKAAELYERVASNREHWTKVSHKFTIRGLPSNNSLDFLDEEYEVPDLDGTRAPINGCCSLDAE

SMILES	PDE2 (PIC50)
Cc1cc(C2CCOCC2)n2nc(NCc3ccnc4ccccc34)nc2n1 [Example 60, 5-Methyl-7-(oxan-4-yl)-N-(quinolin-4-ylmethyl)-[1,2,4]triazolo[1,5-a]pyrimidin-2-amine]	>7
Cc1cc(C2CCOCC2)n2nc(NCc3cccc(Br)c3F)nc2n1 [Example 83, N-[(3-Bromo-2-fluorophenyl)methyl]-5-methyl-7-(oxan-4-yl)-[1,2,4]triazolo[1,5-a]pyrimidin-2-amine]	>7
COc1ccc(CNc2nc3nc(C)cc(C4CCCOC4)n3n2)cc1 (stereo not shown) [Example 38, N-[(4-Methoxyphenyl)methyl]-5-methyl-7-(oxan-3-yl)-[1,2,4]triazolo[1,5-a]pyrimidin-2-amine]	>7
Cc1cc(C2CCOCC2)n2nc(NCc3cnn(-c4ccccc4C)c3)nc2n1 [Example 36, 5-Methyl-N-{[1-(2-methylphenyl)-1H-pyrazol-4-yl]methyl}-7-(oxan-4-yl)-[1,2,4]triazolo[1,5-a]pyrimidin-2-amine]	>7
Cc1cc(C2(C)CCOCC2)n2nc(NCc3cn(-c4ccccc4)nc3C)nc2n1 [Example 61, 5-Methyl-N-[(3-methyl-1-phenyl-1H-pyrazol-4-yl)methyl]-7-(4-methyloxan-4-yl)-[1,2,4]triazolo[1,5-a]pyrimidin-2-amine]	>7
Cc1cc(C2CCOCC2)n2nc(NCc3cccc(C(F)(F)F)c3)nc2n1 [Example 41, 5-Methyl-7-(oxan-4-yl)-N-{[3-(trifluoromethyl)phenyl]methyl}-[1,2,4]triazolo[1,5-a]pyrimidine-2-amine]	>7
Cc1cc(C2CCOCC2)n2nc(NCc3ccc(F)c(Cl)c3F)nc2n1 [Example 78, N-[(3-Chloro-2,4-difluorophenyl)methyl]-5-methyl-7-(oxan-4-yl)-[1,2,4]triazolo[1,5-a]pyrimidin-2-amine]	>7
Cc1cc(C2(C)CC2)n2nc(NCc3cn(-c4ccccc4)nc3C)nc2n1 [Example 76, 5-Methyl-N-[(3-methyl-1-phenyl-1H-pyrazol-4-yl)methyl]-7-(1-methylcyclopropyl)-[1,2,4]triazolo[1,5-a]pyrimidin-2-amine]	>7
Cc1cc(C2CCOCC2)n2nc(NCc3ccnc(C(F)F)c3)nc2n1 [Example 52, N-{[2-(Difluoromethyl)pyridin-4-yl]methyl}-5-methyl-7-(oxan-4-yl)-[1,2,4]triazolo[1,5-a]pyrimidin-2-amine]	>7
Cc1cc(C2CCOCC2)n2nc(NCc3cc(-c4ccccc4)nn3C)nc2n1 [Example 82, 5-Methyl-N-[(1-methyl-3-phenyl-1H-pyrazol-5-yl)methyl]-7-(oxan-4-yl)-[1,2,4]triazolo[1,5-a]pyrimidin-2-amine]	>7
COc1ccc(CNc2nc3nc(CF)cc(C4CCOCC4)n3n2)cc1 [Example 30, 5-(Fluoromethyl)-N-[(4-methoxyphenyl)methyl]-7-(oxan-4-yl)-[1,2,4]triazolo[1,5-a]pyrimidin-2-amine]	>7
Cc1cc(C2CCOCC2)n2nc(NCc3cc(C(F)(F)F)nn3C)nc2n1 [Example 85, 5-Methyl-N-{[1-methyl-3-(trifluoromethyl)-1H-pyrazol-5-yl]methyl}-7-(oxan-4-yl)-[1,2,4]triazolo[1,5-a]pyrimidin-2-amine]	>7
Cc1cc(C2CCOCC2)n2nc(NCc3cc(F)cc(Cl)c3)nc2n1 [Example 84, N-[(3-Chloro-5-fluorophenyl)methyl]-5-methyl-7-(oxan-4-yl)-[1,2,4]triazolo[1,5-a]pyrimidin-2-amine]	>7

same assay, conditions: 200 nM FAM-cAMP substrate, 11-point half-log dose-response, read-out: PDE2 (PIC50)

SMILES	IC50 [µM]
Cc1cc(C2CC2)n2nc(NCc3ccc4c(c3)CCO4)nc2n1 [Example 2, 7-Cyclopropyl-N-((2,3-dihydrobenzofuran-5-yl)methyl)-5-methyl-[1,2,4]triazolo[1,5-a]pyrimidin-2-amine]	1 to 10
COc1ccc(CNc2nc3nc(C)cc(C4CC4)n3n2)cc1 [Example 4, 7-Cyclopropyl-N-(4-methoxybenzyl)-5-methyl-[1,2,4]triazolo[1,5-a]pyrimidin-2-amine]	1 to 10
Cc1cc(C2CCOCC2)n2nc(NCc3ccccc3F)nc2n1 [Example 26, N-[(2-Fluorophenyl)methyl]-5-methyl-7-(oxan-4-yl)-[1,2,4]triazolo[1,5-a]pyrimidin-2-amine]	0.1 to 1
COc1ccc(CNc2nc3nc(C)cc(C4CCOC4)n3n2)cc1 (stereo not shown) [Example 44, N-[(4-Methoxyphenyl)methyl]-5-methyl-7-(oxolan-3-yl)-[1,2,4]triazolo[1,5-a]pyrimidin-2-amine]	0.1 to 1
Cc1cc(C2CCC2)n2nc(NCc3cn(-c4ccccc4)nc3C)nc2n1 [Example 71, 7-Cyclobutyl-5-methyl-N-[(3-methyl-1-phenyl-1H-pyrazol-4-yl)methyl]-[1,2,4]triazolo[1,5-a]pyrimidin-2-amine]	0.1 to 1
Cc1cc(C2CCOCC2)n2nc(NCc3cc(C#N)ccc3F)nc2n1 [Example 73, 4-Fluoro-3-({[5-methyl-7-(oxan-4-yl)-[1,2,4]triazolo[1,5-a]pyrimidin-2-yl]amino}methyl)benzonitrile]	0.1 to 1
Cc1cc(C2CCOCC2)n2nc(NCc3ccccc3C)nc2n1 [Example 47, 5-Methyl-N-[(2-methylphenyl)methyl]-7-(oxan-4-yl)-[1,2,4]triazolo[1,5-a]pyrimidin-2-amine]	0.1 to 1
Cc1cccc(CNc2nc3nc(C)cc(C4CCOCC4)n3n2)c1 [Example 28, 5-Methyl-N-[(3-methylphenyl)methyl]-7-(oxan-4-yl)-[1,2,4]triazolo[1,5-a]pyrimidin-2-amine]	0.1 to 1
Cc1cc(CNc2nc3nc(C)cc(C4(C)CCOCC4)n3n2)ccn1 [Example 43, 5-Methyl-7-(4-methyloxan-4-yl)-N-[(2-methylpyridin-4-yl)methyl]-[1,2,4]triazolo[1,5-a]pyrimidin-2-amine]	0.1 to 1
Cc1cc(C2CCOCC2)n2nc(NCc3c(F)cccc3F)nc2n1 [Example 51, N-[(2,6-Difluorophenyl)methyl]-5-methyl-7-(oxan-4-yl)-[1,2,4]triazolo[1,5-a]pyrimidin-2-amine]	0.1 to 1
Cc1ccc(F)c(CNc2nc3nc(C)cc(C4CCOCC4)n3n2)c1 [Example 27, N-[(2-Fluoro-5-methylphenyl)methyl]-5-methyl-7-(oxan-4-yl)-[1,2,4]triazolo[1,5-a]pyrimidin-2-amine]	0.1 to 1
Cc1cc(C(C)(C)C)n2nc(NCc3cccc(Cl)c3)nc2n1 [Example 9, 7-(tert-Butyl)-N-(3-chlorobenzyl)-5-methyl-[1,2,4]triazolo[1,5-a]pyrimidin-2-amine]	0.1 to 1
Cc1cc(C2CCOCC2)n2nc(NCc3cccc(C#N)c3)nc2n1 [Example 86, 3-({[5-Methyl-7-(oxan-4-yl)-[1,2,4]triazolo[1,5-a]pyrimidin-2-yl]amino}methyl)benzonitrile]	0.1 to 1
Cc1cc(C(C)C)n2nc(NCc3cccc(Cl)c3)nc2n1 [Example 7, N-(3-Chlorobenzyl)-7-isopropyl-5-methyl-[1,2,4]triazolo[1,5-a]pyrimidin-2-amine]	1 to 10
Cc1cc(C2CC2)n2nc(NCc3cn(-c4ccccc4)nc3C)nc2n1 [Example 63, 7-Cyclopropyl-5-methyl-N-[(3-methyl-1-phenyl-1H-pyrazol-4-yl)methyl]-[1,2,4]triazolo[1,5-a]pyrimidin-2-amine]	0.1 to 1
COc1ccc([C@@H](C)Nc2nc3nc(C)cc(C4CCOCC4)n3n2)cc1 [Example 64, N-[(1R)-1-(4-Methoxyphenyl)ethyl]-5-methyl-7-(oxan-4-yl)-[1,2,4]triazolo[1,5-a]pyrimidin-2-amine]	0.1 to 1
Cc1cc(C2CCOCC2)n2nc(NCc3cc(F)ccc3F)nc2n1 [Example 49, N-[(2,5-Difluorophenyl)methyl]-5-methyl-7-(oxan-4-yl)-[1,2,4]triazolo[1,5-a]pyrimidin-2-amine]	0.1 to 1
COc1ccc(CNc2nc3nc(C)cc(C4(C)CCOCC4)n3n2)cc1 [Example 34, N-[(4-Methoxyphenyl)methyl]-5-methyl-7-(4-methyloxan-4-yl)-[1,2,4]triazolo[1,5-a]pyrimidin-2-amine]	0.1 to 1
COc1ccc([C@H](C)Nc2nc3nc(C)cc(C4CCOCC4)n3n2)cc1 [Example 69, N-[(1S)-1-(4-Methoxyphenyl)ethyl]-5-methyl-7-(oxan-4-yl)-[1,2,4]triazolo[1,5-a]pyrimidin-2-amine]	1 to 10
COc1ccc(CNc2nc3nc(C)cc(C4CCC(F)(F)CC4)n3n2)cc1 [Example 22, 7-(4,4-Difluorocyclohexyl)-N-[(4-methoxyphenyl)methyl]-5-methyl-[1,2,4]triazolo[1,5-a]pyrimidin-2-amine]	0.1 to 1
Cc1cc(C(C)C)n2nc(NCc3ccccc3)nc2n1 [Example 8, N-Benzyl-7-isopropyl-5-methyl-[1,2,4]triazolo[1,5-a]pyrimidin-2-amine]	1 to 10
